Tests used:
Human COX-2 = target: T1, Human COX-2 (Homo sapiens, UniProt P35354); assay: Human COX-2 test (LPS-stimulated human monocytoid cell line, arachidonic acid, cyclooxygenase products by ELISA); type: cell-based; conditions: for IC50: human monocytoid cell line, LPS-stimulated, half an hour pre-incubation, arachidonic acid 15 minutes, ELISA, read-out: COX II IC50; for COX I/COX II: selectivity obtained from the two tests, ratio of COX I IC50 to COX II IC50
T1 construct: endogenous in cells
T1 sequence (P35354 18-604): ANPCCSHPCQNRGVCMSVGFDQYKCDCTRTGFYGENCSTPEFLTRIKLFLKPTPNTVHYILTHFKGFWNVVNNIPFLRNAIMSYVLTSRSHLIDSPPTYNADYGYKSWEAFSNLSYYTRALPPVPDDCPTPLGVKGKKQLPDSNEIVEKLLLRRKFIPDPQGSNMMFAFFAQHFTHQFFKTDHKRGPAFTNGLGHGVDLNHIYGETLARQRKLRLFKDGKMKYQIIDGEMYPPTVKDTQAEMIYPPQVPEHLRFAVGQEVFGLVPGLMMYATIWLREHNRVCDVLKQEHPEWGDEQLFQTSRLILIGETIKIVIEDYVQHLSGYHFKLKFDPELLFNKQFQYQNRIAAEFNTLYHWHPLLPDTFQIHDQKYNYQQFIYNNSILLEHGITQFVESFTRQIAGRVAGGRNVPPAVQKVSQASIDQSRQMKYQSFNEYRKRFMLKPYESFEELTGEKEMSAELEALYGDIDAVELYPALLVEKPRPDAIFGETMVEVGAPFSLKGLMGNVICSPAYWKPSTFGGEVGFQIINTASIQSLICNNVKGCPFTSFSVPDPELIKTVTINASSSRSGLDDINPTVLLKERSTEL
Method: Cells from a human monocytoid cell line are stimulated with LPS (incubator at 37° C., 5% CO2 -enriched atmosphere and approximately 100% relative humidity), in order to induce COX-2. Then the culture medium (RPMI 1640 enriched with 10% FCS, 2 mM glutamine, […], […] and 1 mM pyruvate) was renewed and potential inhibitors of cyclooxygenase-2, dissolved in culture medium or in phosphate-buffered saline or in any other solvent which is compatible with cell culture, were added and incubated for half an hour as described above. Arachidonic acid was pipetted in and incubation was continued for 15 minutes. The culture supernatant of the cells was removed and its content of products of cyclooxygenase metabolism (such as prostaglandin E2, prostaglandin F1a and thromboxane B2) was measured by ELISA.

Human COX 1 = target: T2, Human COX 1 (Homo sapiens, UniProt P23219); assay: Human COX 1 test (arachidonic acid-induced aggregation of washed human thrombocytes); type: cell-based; conditions: arachidonic acid 10 μM, 37° C., substance added 2 minutes before, read-out: COX I IC50
T2 construct: arachidonic acid-induced aggregation of washed human thrombocytes; endogenous in cells; host or cells: washed human thrombocytes (platelets)
Method: The inhibition of arachidonic acid-induced aggregation of washed human thrombocytes was used as a test system for assessing the inhibition of cyclooxygenase I. The test substances were added to a thrombocyte suspension at 37° C. 2 minutes before the addition of the arachidonic acid (final concentration 10 μM) and the course of aggregation was measured using an aggregometer. By means of a concentration-activity curve the concentration of test substance at which 50% aggregation is measured was determined (IC50).

T2 sequence (P23219 24-599): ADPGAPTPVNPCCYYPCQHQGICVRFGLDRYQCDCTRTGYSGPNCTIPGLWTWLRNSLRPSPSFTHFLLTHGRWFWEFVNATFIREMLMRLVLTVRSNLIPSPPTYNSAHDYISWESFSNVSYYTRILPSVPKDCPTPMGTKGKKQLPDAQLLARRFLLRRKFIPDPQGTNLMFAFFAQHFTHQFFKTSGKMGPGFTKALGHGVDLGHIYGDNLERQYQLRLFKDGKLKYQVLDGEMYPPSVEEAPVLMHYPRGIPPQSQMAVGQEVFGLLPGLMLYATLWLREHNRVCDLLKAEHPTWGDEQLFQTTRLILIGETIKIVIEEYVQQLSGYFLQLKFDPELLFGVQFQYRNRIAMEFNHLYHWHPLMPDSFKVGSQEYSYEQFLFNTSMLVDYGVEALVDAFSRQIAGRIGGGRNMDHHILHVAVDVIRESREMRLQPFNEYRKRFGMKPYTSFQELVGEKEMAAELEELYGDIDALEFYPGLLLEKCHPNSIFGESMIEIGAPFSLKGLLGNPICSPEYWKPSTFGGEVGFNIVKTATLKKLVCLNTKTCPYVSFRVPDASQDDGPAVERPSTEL

Row | IC50 (Human COX-2) [nM] | COX I/COX II (Human COX-2) | IC50 (Human COX 1) [nM] | Structure (SMILES)
1 | 270 | ≥ 253 | ≥ 70000 | CS(=O)(=O)Nc1ccc(S(N)(=O)=O)cc1Sc1ccc(Br)cc1 [Example 26, 3-(4-Bromophenylthio)-4-methylsulphonylaminobenzenesulphonamide]
2 | 170 | 353 | 60000 | CS(=O)(=O)Nc1ccc(S(N)(=O)=O)cc1Sc1ccc(Cl)cc1 [Example 17, 3-(4-Chlorophenylthio) -4-methylsulphonylaminobenzenesulphonamide]
3 | 170 | ≥ 196 | ≥ 35000 | CS(=O)(=O)Nc1ccc(S(N)(=O)=O)cc1Sc1ccccc1Cl [Example 25, 3-(2-Chlorophenylthio)-4-methylsulphonylaminobenzene-sulphonamide]
4 | 27 | 1000 | 27000 | CS(=O)(=O)Nc1ccc(S(N)(=O)=O)cc1Sc1ccc(Cl)cc1Cl [Example 7, 3-(2,4-Dichlorothiophenoxy)-4-methylsulphonylamino-benzenesulphonamide]

Further lines, the compound ahead of its results:

Row | Structure (SMILES) | IC50 (Human COX-2) [nM] | COX I/COX II (Human COX-2) | IC50 (Human COX 1) [nM]
5 | CS(=O)(=O)Nc1ccc(S(N)(=O)=O)cc1Oc1ccc(Cl)cc1Cl [Example 1, 3-(2,4-Dichlorophenoxy)-4-methylsulphonylamino-benzenesulphonamide] | 100 | ≥ 500 | ≥ 50000
6 | CS(=O)(=O)Nc1ccc(S(N)(=O)=O)cc1Sc1ccc(F)cc1Cl [Example 8, 3-(2-Chloro-4-fluorothiophenoxy)-4-methylsulphonylamino-benzene-sulphonamide] | 150 | 73 | 11000
7 | CS(=O)(=O)Nc1ccc(S(N)(=O)=O)cc1SC1CCCCC1 [Example 19, 3-(Cyclohexylthio)-4-methylsulphonylaminobenzene-sulphonamide] | 540 | ≥ 110 | ≥ 60000
8 | CS(=O)(=O)Nc1ccc(S(N)(=O)=O)cc1Sc1ccc(F)cc1F [Example 6, 3-(2,4-Difluorothiophenoxy)-4-methylsulphonylamino-benzenesulphonamide] | 200 | 260 | 52000
9 | CS(=O)(=O)Nc1cc2c(cc1Oc1ccccc1)S(=O)(=O)NC2 [Example 4, 6-(Phenoxy) -5-methylsulphonylamino-2H-1,2-benzothiazolidin-1,1-dioxide] | 110 | ≥ 450 | ≥ 45000
